Laboratory results as given in patent US20180280435A1, “T CELL DELIVERY OF MDA-7/IL-24 TO IMPROVE THERAPEUTIC ERADICATION OF CANCER AND GENERATE PROTECTIVE ANTITUMOR IMMUNITY” (VIRGINIA COMMONWEALTH UNIVERSITY, priority 2015, published 2018).

What was measured:
CD11b+Gr-1+MDSCs = test: MDSC frequency after MCL-1 inhibitor in tumor-bearing mice (FACS); assay type: in vivo
Method: FIG. 6. Potential immune modulation by MCL-1 inhibition. MCL-1 inhibitor reduces MDSCs in tumor-bearing mice. Tumor-bearing mice received BI-97C1 (Sabutoclax) (5 mg/kg or 20 mg/kg) i.p. or left untreated. 24 h later, splenic CD11b+GR-1+MDSCs were assessed by FACS.
Reduction of MDSCs could be explained by the direct cytotoxic effect of BI-97C1 (Sabutoclax), due to its ability to abrogate Bcl-2 protein functions.

CD8+ T cells = test: T cell proliferation, 3H-thymidine (TdR) incorporation after anti-CD3/CD28 stimulation; assay type: cell-based; settings: 20 ng/ml protein
Method: (§1) A. CD8+ T cells were stimulated with anti-CD3/CD28 antibodies in the presence or absence of purified MDA-7/IL-24 protein (20 ng/ml). Cell proliferation was measured using 3H-thymidine (TdR) incorporation assays. P<0.05. B. C57BL/6 mice were injected i.v. with MDA-7/IL-24 protein (10 μg) or PBS. 48 h later, lymph node cells were assessed for IFN-γ-producing CD8+ T cells by intracellular staining.
(§2) The clinical application of immunotherapy is limited by the escape mechanisms cancer cells employ to avoid immune destruction due to immunoediting (e.g., selection of non-immunogenic or antigen loss cancer cell variants) and other immunosuppressive mechanisms at the tumor site. Since cancer-specific toxicity of MDA-7/IL-24 is antigen-independent, the delivery of a cancer-suicide agent in combination with T-cells may overcome the acquired tumor resistance to T-cell therapy. Intriguingly, MDA-7/IL-24 protein enhanced the proliferation of T cells upon TCR ligation (FIG. 8A). Treatment of mice with recombinant MDA-7/IL-24 protein increased the frequency of IFN-γ-expressing CD8+ T cells (FIG. 8B), supporting a role of MDA-7/IL-24 as a pro-Th 1 cytokine.

[1] = system: IFN-γ-producing CD8+ T cells; test: IFN-γ-producing CD8+ T cells in lymph nodes after i.v. protein (intracellular staining); assay type: in vivo, C57BL/6 mice; settings: 10 μg i.v., 48 h later, lymph node cells
Method: as §1, §2

Molecule | frequency of CD11b+Gr-1+MDSCs (CD11b+Gr-1+MDSCs; single administration i.p. (5 mg/kg or 20 mg/kg), splenic MDSCs 24 h later) | toxicity (CD11b+Gr-1+MDSCs; single administration in tumor-bearing mice) | proliferation of T cells upon TCR ligation (CD8+ T cells) | frequency of IFN-γ-expressing CD8+ T cells [1]
Cc1cc2c(C(=O)NC[C@H](C)c3ccccc3)c(O)c(O)cc2c(O)c1-c1c(C)cc2c(C(=O)NC[C@H](C)c3ccccc3)c(O)c(O)cc2c1O [BI-97C1, Sabutoclax] | substantially reduced | without inducing toxicity | – | –
MDA-7/IL-24 protein: Melanoma differentiation associated gene-7/Interleukin-24, secreted protein of the IL-10 family (protein) QEFHFGPCQVKGVVPQKLWEAFWAVKDTMQAQDNITSARLLQQEVLQNVSDAESCYLVHTLLEFYLKTVFKNYHNRTVEVRTLKSFSTLANNFVLIVSQLQPSQENEMFSIRDSAHRRFLLFRRAFKQLDVEAALTKALGEVDILLTWMQKFYKL | – | – | enhanced | increased
